{"source": "ChEMBL document CHEMBL2074068", "about": "“Flavonoid permeability across an in situ model of the blood-brain barrier” (Free Radic Biol Med, 2004)", "key": {"[1]": {"biological_target": "T1, ATP-dependent translocase ABCB1 (Homo sapiens, UniProt P08183)", "T1 sequence (P08183 whole entry)": "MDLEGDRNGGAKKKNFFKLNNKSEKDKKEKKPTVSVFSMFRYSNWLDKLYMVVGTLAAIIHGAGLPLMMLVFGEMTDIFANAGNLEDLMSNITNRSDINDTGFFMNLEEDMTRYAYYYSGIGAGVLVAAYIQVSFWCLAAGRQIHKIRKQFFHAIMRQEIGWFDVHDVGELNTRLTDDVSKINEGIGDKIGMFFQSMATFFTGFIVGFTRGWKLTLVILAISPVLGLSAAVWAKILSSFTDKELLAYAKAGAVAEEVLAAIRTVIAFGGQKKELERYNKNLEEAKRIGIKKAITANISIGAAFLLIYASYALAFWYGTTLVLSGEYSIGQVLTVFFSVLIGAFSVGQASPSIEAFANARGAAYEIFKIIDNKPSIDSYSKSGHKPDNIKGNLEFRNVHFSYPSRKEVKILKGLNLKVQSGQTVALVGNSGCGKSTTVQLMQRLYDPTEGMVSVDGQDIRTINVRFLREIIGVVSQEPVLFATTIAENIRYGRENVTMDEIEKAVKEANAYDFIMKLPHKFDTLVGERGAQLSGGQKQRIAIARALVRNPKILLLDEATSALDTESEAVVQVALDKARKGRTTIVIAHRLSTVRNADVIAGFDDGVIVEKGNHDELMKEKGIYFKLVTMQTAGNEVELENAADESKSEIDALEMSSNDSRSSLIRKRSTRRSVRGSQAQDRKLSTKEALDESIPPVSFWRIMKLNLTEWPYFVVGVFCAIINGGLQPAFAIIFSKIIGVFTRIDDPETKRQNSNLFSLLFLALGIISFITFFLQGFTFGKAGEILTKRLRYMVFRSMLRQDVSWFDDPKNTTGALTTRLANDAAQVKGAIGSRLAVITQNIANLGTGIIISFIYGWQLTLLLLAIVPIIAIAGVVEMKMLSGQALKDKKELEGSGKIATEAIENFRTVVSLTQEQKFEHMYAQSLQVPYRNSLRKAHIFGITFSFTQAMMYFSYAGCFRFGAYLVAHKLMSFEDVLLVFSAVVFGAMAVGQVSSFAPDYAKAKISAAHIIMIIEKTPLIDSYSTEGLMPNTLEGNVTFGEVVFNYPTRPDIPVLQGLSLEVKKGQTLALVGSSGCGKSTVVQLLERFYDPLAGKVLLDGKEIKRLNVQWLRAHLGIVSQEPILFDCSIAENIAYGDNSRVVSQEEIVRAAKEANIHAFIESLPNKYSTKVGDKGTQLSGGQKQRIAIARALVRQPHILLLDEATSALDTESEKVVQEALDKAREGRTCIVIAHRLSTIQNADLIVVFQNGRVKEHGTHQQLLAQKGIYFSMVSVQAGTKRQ", "assay": "TP_TRANSPORTER: cell accumulation of colchicine in the presence of Naringenin at a concentration of 100uM in MDR1-expressing MDCK cells", "type": "functional, cell-based", "conditions": "dog"}, "[2]": {"biological_target": "T1, ATP-dependent translocase ABCB1", "assay": "TP_TRANSPORTER: cell accumulation in MDR1-expressing MDCK cells", "type": "functional, cell-based", "conditions": "dog"}}}
{"molecule": "O=C1C[C@@H](c2ccc(O)cc2)Oc2cc(O)cc(O)c21", "note": "[NARINGENIN]", "values": [{"measurement": "Activity", "setting": "[1]", "result": "inhibitor [+]"}, {"measurement": "Activity", "setting": "[2]", "result": "substrate [+]"}]}
